Data reported in patent US10654828B2 (NOVARTIS AG, priority 2017, dated 2020).
Where two headings read alike, the source gives them in different places.

Key:
FoxO3a = FoxO3a inhibition: GFP-FoxO3a nuclear to cytoplasmic translocation reporter assay; assay type: cell-based; details: U2OS GFP-FoxO3a H212R cells, serum starved overnight, compound 30 minutes, ratio of nuclear to cytosolic GFP intensity, DMSO control 0%, read-out: FoxO AC50
Procedure, shortened: (§1)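 Serum-starved U2OS cells expressing GFP-FoxO3a H212R treated with compounds 30 min, fixed, imaged. FoxO3a: nuclear/cytosolic GFP ratio, %. AKT: total cellular phospho-AKT (Ser473) antibody staining intensity, %. DMSO set as 0% activity.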

AKT = AKT activation: Phospho-AKT (Ser473) antibody staining in reporter cells; assay type: cell-based; details: U2OS GFP-FoxO3a H212R cells, serum starved overnight, compound 30 minutes, total cellular intensity of Phospho-AKT (Ser473) staining, DMSO control 0%
Procedure, shortened: as §1

SMILES	AC50 (FoxO3a; Homo sapiens, U2OS, 0.5 h) [nM]	AC50 (AKT; Homo sapiens, U2OS, 0.5 h) [nM]	AC50 (FoxO3a) [nM]	AC50 (AKT) [nM]
Cc1cc(C(N)=O)nn1-c1ccc2c(ccn2Cc2ccc(-c3ccc(C(=O)NCCN4CCOCC4)cc3)cc2)c1 [Example 1-38, 5-methyl-1-(1-((4′-((2-morpholinoethyl)carbamoyl)-[1,1′-biphenyl]-4-yl)methyl)-1H-indol-5-yl)-1H-pyrazole-3-carboxamide]	78	240		
Cc1cc(C(N)=O)nn1-c1ccc2c(ccn2Cc2ccc(-c3ccc(S(=O)(=O)CCN4CCN(C)CC4)cc3)cc2)c1 [Example 19, 5-methyl-1-(1-((4′-((2-(4-methylpiperazin-1-yl)ethyl)sulfonyl)-[1,1′-biphenyl]-4-yl)methyl)-1H-indol-5-yl)-1H-pyrazole-3-carboxamide]	61	142		
Cc1cc(C(N)=O)nn1-c1ccc2c(ccn2Cc2ccc(C3=CCN(C)CC3C)cc2)c1 (single isomer, unassigned) [Example 17-3, 1-(1-(4-(1,3-dimethyl-1,2,3,6-tetrahydropyridin-4-yl)benzyl)-1H-indol-5-yl)-5-methyl-1H-pyrazole-3-carboxamide]			251	840
Cc1cc(C(N)=O)nn1-c1ccc2c(ccn2Cc2ccc(CC3CN(C)C3)cc2)c1 [Example 32, 5-methyl-1-(1-(4-((1-methylazetidin-3-yl)methyl)benzyl)-1H-indol-5-yl)-1H-pyrazole-3-carboxamide]	1040	4360		
Cc1cc(C(N)=O)nn1-c1ccc2c(ccn2Cc2ccc([C@@H]3C[C@@H]4CN(S(C)(=O)=O)C[C@@H]4C3)cc2)c1 [Example 41, 5-methyl-1-(1-(4-((3aR,5r,6aS)-2-(methylsulfonyl)octahydrocyclopenta[c]pyrrol-5-yl)benzyl)-1H-indol-5-yl)-1H-pyrazole-3-carboxamide]	113	304		
Cc1cc(C(N)=O)nn1-c1ccc2c(ccn2Cc2ccc(C3CCN(C)CC3(C)C)cc2)c1 (stereo not drawn) [Example 16-1, 5-methyl-1-(1-(4-(1,3,3-trimethylpiperidin-4-yl)benzyl)-1H-indol-5-yl)-1H-pyrazole-3-carboxamide]	171	966		
Cc1cc(C(N)=O)nn1-c1ccc2c(ccn2Cc2ccc(C3=CCN(C)CC3(C)C)cc2)c1 [Example 15-2, 5-methyl-1-(1-(4-(1,3,3-trimethyl-1,2,3,6-tetrahydropyridin-4-yl)benzyl)-1H-indol-5-yl)-1H-pyrazole-3-carboxamide]	197	389		
Cc1cc(C(N)=O)nn1-c1ccc2c(ccn2Cc2ccc([C@H]3C[C@H]4CNC[C@H]4C3)cc2)c1 [Example 39, 5-methyl-1-(1-(4-((3aR,5r,6aS)-octahydrocyclopenta[c]pyrrol-5-yl)benzyl)-1H-indol-5-yl)-1H-pyrazole-3-carboxamide]	175	907		
Cc1cc(C(N)=O)nn1-c1ccc2c(ccn2Cc2ccc(-c3ccc4c(c3)CCNC4=O)cc2)c1 [Example 1-25, 5-methyl-1-(1-(4-(1-oxo-1,2,3,4-tetrahydroisoquinolin-6-yl)benzyl)-1H-indol-5-yl)-1H-pyrazole-3-carboxamide]	56	197		
